Results as given in US7214669B2, “Tetracycline derivatives and methods of use thereof” (Tetragenex Pharmaceuticals, Inc., priority 2001, dated 2007).
pIC50: −log10 of the molar value. Several values for one entry are separate records, joined by “and”; a condition that tells them apart may be missing. Equal values may be shown once. Where a name gives a salt, the structure may show the parent alone.

What was measured:
MMP2 (Gelatinase A) = target: T1, MMP2 (Gelatinase A) (Homo sapiens, UniProt P08253); test: MMP2 (Gelatinase A) inhibition, 14C gelatin release; type: biochemical; details: 37° C., 16 hours; read-out: MMP-2 inhibitory activity, IC50
T1 sequence (P08253 110-660): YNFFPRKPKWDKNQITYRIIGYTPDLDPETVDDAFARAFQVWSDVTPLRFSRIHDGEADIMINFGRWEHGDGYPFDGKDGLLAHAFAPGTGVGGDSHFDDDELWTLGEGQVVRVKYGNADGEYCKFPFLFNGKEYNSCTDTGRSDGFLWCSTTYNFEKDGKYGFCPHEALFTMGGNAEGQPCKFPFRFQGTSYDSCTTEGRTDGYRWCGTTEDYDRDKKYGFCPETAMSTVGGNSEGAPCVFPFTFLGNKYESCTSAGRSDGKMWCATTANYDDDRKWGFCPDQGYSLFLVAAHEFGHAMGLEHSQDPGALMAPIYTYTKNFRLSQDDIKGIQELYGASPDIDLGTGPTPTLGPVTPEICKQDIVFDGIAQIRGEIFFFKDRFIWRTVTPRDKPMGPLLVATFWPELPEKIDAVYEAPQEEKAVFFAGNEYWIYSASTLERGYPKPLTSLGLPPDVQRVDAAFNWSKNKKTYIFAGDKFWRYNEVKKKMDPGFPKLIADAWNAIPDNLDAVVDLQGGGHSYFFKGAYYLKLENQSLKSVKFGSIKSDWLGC

[1] = test system: MDA-MB-231 human breast cancer cells; test: Membrane Invasion Culture System (MICS) chemo-invasion assay; type: cell-based; details: 24 hours, + = increased invasiveness
In short: (§1)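 Fifty thousand cells were seeded above a 35 μm laminin/collagen IV/gelatin barrier on a 10 μm-pore filter, with serum-free RPMI plus 50% fibroblast-conditioned medium below as chemoattractant. Compound at 1, 10 or 25 μg/ml, or DMSO vehicle, was present for 24 h. Invaded cells were collected, Wright-stained and counted over 5 fields.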

[2] = test system: C8161 human melanoma cells; test: as above; type: cell-based; details: 24 hours, + = increased invasiveness
In short: as §1

[3] = test system: PC-3 ML human prostate cancer cells; test: as above; type: cell-based; details: 24 hours, + = increased invasiveness
In short: as §1

[4] = test system: RPMI-8226 human myeloma cancer cells; test: as above; type: cell-based; details: 24 hours, + = increased invasiveness
In short: as §1

Human recombinant MMP3 = Human recombinant MMP3 (Homo sapiens, UniProt P08254); test: MMP3 (Stromelysin 1) inhibition, 14C casein release; type: biochemical; details: 37° C., 16 hours; read-out: MMP-3 inhibitory activity, IC50
Human recombinant MMP1 = target: T2, Human recombinant MMP1 (Homo sapiens, UniProt P03956); test: MMP1 (Collagenase-1) inhibition, 14C collagen release; type: biochemical; details: 35° C., 5 hours; read-out: MMP-1 inhibitory activity, IC50
T2 sequence (P03956 100-469): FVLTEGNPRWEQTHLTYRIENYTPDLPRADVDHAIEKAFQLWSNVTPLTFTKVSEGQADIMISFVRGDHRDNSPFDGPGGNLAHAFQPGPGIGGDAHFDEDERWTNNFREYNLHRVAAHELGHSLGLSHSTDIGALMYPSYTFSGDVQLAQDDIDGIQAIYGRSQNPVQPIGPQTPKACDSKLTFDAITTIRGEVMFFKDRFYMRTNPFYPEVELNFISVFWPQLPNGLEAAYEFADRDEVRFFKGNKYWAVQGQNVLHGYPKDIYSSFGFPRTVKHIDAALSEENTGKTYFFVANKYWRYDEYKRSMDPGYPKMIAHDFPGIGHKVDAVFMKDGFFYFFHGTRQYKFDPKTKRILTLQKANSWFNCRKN

Human recombinant MMP9 = Human recombinant MMP9 (Homo sapiens, UniProt P14780); test: MMP9 (Gelatinase B) inhibition, 14C gelatin release; type: biochemical; details: 37° C., 16 hours; read-out: MMP-9 inhibitory activity, IC50
Human recombinant MMP14 = Human recombinant MMP14 (Homo sapiens, UniProt P50281); test: MMP14 (MTI-MMP) inhibition, 14C collagen release; type: biochemical; details: 35° C., 15 hours; read-out: MMP-14 inhibitory activity, IC50
Human recombinant MMP7 = target: T3, Human recombinant MMP7 (Homo sapiens, UniProt P09237); test: MMP7 (Matrilysin) inhibition, 14C casein release; type: biochemical; details: 37° C., 16 hours; read-out: MMP-7 inhibitory activity, IC50
T3 sequence (P09237 95-267): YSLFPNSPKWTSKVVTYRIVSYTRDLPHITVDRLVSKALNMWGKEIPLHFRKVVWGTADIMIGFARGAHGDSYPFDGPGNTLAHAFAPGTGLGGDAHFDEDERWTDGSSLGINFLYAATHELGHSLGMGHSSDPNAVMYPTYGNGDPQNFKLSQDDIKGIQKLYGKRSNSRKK

[5] = test system: Arp-1 human myeloma cancer cells; test: Membrane Invasion Culture System (MICS) chemo-invasion assay; type: cell-based; details: 24 hours, + = increased invasiveness
In short: as §1

[6] = test system: Ark human myeloma cancer cells; test: as above; type: cell-based; details: 24 hours, + = increased invasiveness
In short: as §1

Sequence of Human recombinant MMP3 (P08254 100-477): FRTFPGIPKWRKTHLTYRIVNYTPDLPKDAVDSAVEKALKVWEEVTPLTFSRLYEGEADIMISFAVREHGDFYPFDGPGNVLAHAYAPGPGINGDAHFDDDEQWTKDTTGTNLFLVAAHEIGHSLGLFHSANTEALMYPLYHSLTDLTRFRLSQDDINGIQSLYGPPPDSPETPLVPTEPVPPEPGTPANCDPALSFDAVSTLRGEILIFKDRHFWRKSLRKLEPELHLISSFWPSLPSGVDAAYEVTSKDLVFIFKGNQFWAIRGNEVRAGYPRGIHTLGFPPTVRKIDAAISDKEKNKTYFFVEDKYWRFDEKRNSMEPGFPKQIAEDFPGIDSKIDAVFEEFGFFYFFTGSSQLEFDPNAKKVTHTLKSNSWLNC
Sequence of Human recombinant MMP9 (P14780 94-707): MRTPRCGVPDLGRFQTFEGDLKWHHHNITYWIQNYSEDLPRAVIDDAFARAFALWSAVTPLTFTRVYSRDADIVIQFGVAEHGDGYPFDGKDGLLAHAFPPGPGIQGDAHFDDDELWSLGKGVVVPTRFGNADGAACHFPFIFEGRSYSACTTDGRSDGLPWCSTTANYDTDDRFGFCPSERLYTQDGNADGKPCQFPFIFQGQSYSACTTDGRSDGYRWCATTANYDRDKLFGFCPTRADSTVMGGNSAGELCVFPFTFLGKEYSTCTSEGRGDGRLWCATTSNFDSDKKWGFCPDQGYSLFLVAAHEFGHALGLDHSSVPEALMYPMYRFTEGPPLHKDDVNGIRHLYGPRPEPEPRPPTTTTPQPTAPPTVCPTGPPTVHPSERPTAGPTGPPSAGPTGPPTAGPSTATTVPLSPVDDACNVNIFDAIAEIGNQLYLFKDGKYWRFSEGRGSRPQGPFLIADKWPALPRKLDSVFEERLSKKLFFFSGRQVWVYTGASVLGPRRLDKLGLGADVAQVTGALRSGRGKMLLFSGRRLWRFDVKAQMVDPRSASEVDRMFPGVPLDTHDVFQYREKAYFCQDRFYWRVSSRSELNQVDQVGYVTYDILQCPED

SMILES | pIC50 (MMP2 (Gelatinase A)) | pIC50 (Human recombinant MMP3) | pIC50 (Human recombinant MMP1) | pIC50 (Human recombinant MMP9) | pIC50 (Human recombinant MMP14) | pIC50 (Human recombinant MMP7) | percent inhibition, MDA-MB-231 (Breast) ([1]; 1 ug/mL) | percent inhibition, MDA-MB-231 (Breast) ([1]; 10 ug/mL) | percent inhibition, MDA-MB-231 (Breast) ([1]; 25 ug/mL) | percent inhibition, C8161 (Melanoma) ([2]; 1 ug/mL) | percent inhibition, C8161 (Melanoma) ([2]; 10 ug/mL) | percent inhibition, C8161 (Melanoma) ([2]; 25 ug/mL) | percent inhibition, PC-3 ML (Prostrate) ([3]; 1 ug/mL) | percent inhibition, PC-3 ML (Prostrate) ([3]; 10 ug/mL) | percent inhibition, PC-3 ML (Prostrate) ([3]; 25 ug/mL) | percent inhibition, RPMI-8226 (Multiple Myeloma) ([4]; 1 ug/mL) | percent inhibition, RPMI-8226 (Multiple Myeloma) ([4]; 10 ug/mL) | percent inhibition, RPMI-8226 (Multiple Myeloma) ([4]; 25 ug/mL) | percent inhibition, ARK ([6]; 1 ug/mL) | percent inhibition, ARK ([6]; 10 ug/mL) | other results
CN(C)c1cc([N+](=O)[O-])c(O)c2c1CC1CC3C(N(C)C)C(O)=C(C(N)=O)C(=O)C3(O)C(O)=C1C2=O (stereo not shown) [Compound 4, 7-Dimethylamino-6-demethyl-6-deoxy-9-nitrotetracycline H2SO4] | 3.38 | 3.66 | 3.39 | 4.44 | 4.21 | 3.56 | 5% | 6% | 2% | 27^B percent | 24^B percent | 17% | 10% | +8% | 3% | +4% | +5% | +14% |  |  | 
CN(C)c1cc([N+]#N)c(O)c2c1CC1CC3C(N(C)C)C(O)=C(C(N)=O)C(=O)C3(O)C(O)=C1C2=O (stereo not shown) [Compound 9, 7-dimethylamino-6-demethyl-6-deoxytetracycline-9-diazonium H2SO4 HCL] | 3.47 | 3.81 | 3.43 | 4.55 | 4.54 | 3.29 |  |  |  |  |  |  |  |  |  | 21^B percent | 24^B percent | 28^B percent | 17^B percent | 24^B percent | percent inhibition, ARP-1 ([5]; 1 ug/mL): +14%; percent inhibition, ARP-1 ([5]; 10 ug/mL): +21^B percent; percent inhibition, ARP-1 ([5]; 25 ug/mL): 7%; percent inhibition, ARK ([6]; 25 ug/mL): 20^B percent
CN(C)C1C(O)=C(C(N)=O)C(=O)C2(O)C(O)=C3C(=O)c4c(O)c(Br)cc(Br)c4CC3CC12 (stereo not shown) [Compound 13, 7,9-Dibromo-6-demethyl-6-deoxytetracycline H2SO4] | 4.32 | 3.69 | 3.90 | 4.19 | 4.85 | < 3.00 | 4% | 0% | +9% | 6% | 12% | 14% | 8% | 23^B percent | 13% | +11% | +13% | +12% | 2% | +7% | percent inhibition, ARK ([6]; 25 ug/mL): 1%
CN(C)c1cc(N=[N+]=[N-])c(O)c2c1CC1CC3C(N(C)C)C(O)=C(C(N)=O)C(=O)C3(O)C(O)=C1C2=O (stereo not shown) [Compound 10, 9-Azido-7-demethylamino-6-demethyl-6-deoxytetracycline H2SO4] | 3.32 | 4.02 | 3.30 | 4.39 | 4.28 | < 3.00 |  |  |  |  | 22% and 28^B percent |  |  |  |  | 3% | 5% | 29^B percent | 6% | +7% | percent inhibition, ARK ([6]; 25 ug/mL): 1%

Second part, led by results:

pIC50 (MMP2 (Gelatinase A)) | pIC50 (Human recombinant MMP3) | pIC50 (Human recombinant MMP1) | pIC50 (Human recombinant MMP9) | pIC50 (Human recombinant MMP14) | pIC50 (Human recombinant MMP7) | SMILES | percent inhibition, MDA-MB-231 (Breast) ([1]; 1 ug/mL) | percent inhibition, MDA-MB-231 (Breast) ([1]; 10 ug/mL) | percent inhibition, MDA-MB-231 (Breast) ([1]; 25 ug/mL) | percent inhibition, C8161 (Melanoma) ([2]; 1 ug/mL) | percent inhibition, C8161 (Melanoma) ([2]; 10 ug/mL) | percent inhibition, C8161 (Melanoma) ([2]; 25 ug/mL) | percent inhibition, PC-3 ML (Prostrate) ([3]; 1 ug/mL) | percent inhibition, PC-3 ML (Prostrate) ([3]; 10 ug/mL) | percent inhibition, PC-3 ML (Prostrate) ([3]; 25 ug/mL) | percent inhibition, RPMI-8226 (Multiple Myeloma) ([4]; 1 ug/mL) | percent inhibition, RPMI-8226 (Multiple Myeloma) ([4]; 10 ug/mL) | percent inhibition, RPMI-8226 (Multiple Myeloma) ([4]; 25 ug/mL) | percent inhibition, ARK ([6]; 1 ug/mL) | percent inhibition, ARK ([6]; 10 ug/mL) | other results
3.22 | 3.63 | < 3.00 | < 3.00 | < 3.00 | 3.41 | CC(=O)Nc1cc(N(C)C)c2c(c1O)C(=O)C1=C(O)C3(O)C(=O)C(C(N)=O)=C(O)C(N(C)C)C3CC1C2 (stereo not shown) [Compound 8, 9-Acetamido-7-dimethylamino-6-demethyl-6-deoxytetracycline H2SO4] | +10% | +5% | +13% | 13^B percent | 41^B percent | 40^B percent | 0% | +4% | 0% | 11% | 3% | +2% |  |  | 
< 3.00 | 3.57 | 3.37 | 4.02 | 4.34 | < 3.00 | CC1c2ccc([N+]#N)c(O)c2C(=O)C2=C(O)C3(O)C(=O)C(C(N)=O)=C(O)C(N(C)C)C3C(O)C21 (stereo not shown) [Compound 11, 6-Deoxy-5-hydroxytetracycline-9-diazonium H2SO4] | 6% | 15% | 36^B percent | 16% | 46^B percent | 41^B percent | +3% | 0% | 36^B percent |  |  |  |  |  | 
< 3.00 | 3.52 | < 3.00 | 3.87 | 3.67 | < 3.00 | CC(C)Nc1ccc2c(c1O)C(=O)C1=C(O)C3(O)C(=O)C(C(N)=O)=C(O)C(N(C)C)C3C(O)C1C2C (stereo not shown) [Compound 3, 9-Isopropylamino-6-deoxy-5-hydroxytetracycline H2SO4] | +8% | +2% | 12% | 30^B percent | 22^B percent | 15^B percent | 3% | +1% | 25^B percent |  |  |  | +11% | +6% | percent inhibition, ARP-1 ([5]; 1 ug/mL): +13%; percent inhibition, ARP-1 ([5]; 10 ug/mL): +1%; percent inhibition, ARP-1 ([5]; 25 ug/mL): +16%; percent inhibition, ARK ([6]; 25 ug/mL): +15%
3.87 | 3.62 | 3.40 | 4.08 | 4.25 | < 3.00 and > 3.00 | CC1c2ccc(N=[N+]=[N-])c(O)c2C(=O)C2=C(O)C3(O)C(=O)C(C(N)=O)=C(O)C(N(C)C)C3C(O)C21 (stereo not shown) [Compound 6, 9-Azido-6-deoxy-5-hydroxytetracycline H2SO4] |  |  | 27^B percent and 42^B percent |  | 33^B percent and 21^B percent | 32^B percent and 33^B percent | 21% and 13% | 26% and 32^B percent | 41^B percent and 30^B percent |  |  |  | 12% | 0% | percent inhibition, ARK ([6]; 25 ug/mL): 8%
